Where “and” joins values, the source holds several entries; their conditions need not be identical. Equal values may be shown once. Read-outs that look alike come from different tables or passages of the source.
Biological target: T1, HRP Type VIA (Armoracia rusticana, UniProt P00433)
T1 sequence (P00433 31-338): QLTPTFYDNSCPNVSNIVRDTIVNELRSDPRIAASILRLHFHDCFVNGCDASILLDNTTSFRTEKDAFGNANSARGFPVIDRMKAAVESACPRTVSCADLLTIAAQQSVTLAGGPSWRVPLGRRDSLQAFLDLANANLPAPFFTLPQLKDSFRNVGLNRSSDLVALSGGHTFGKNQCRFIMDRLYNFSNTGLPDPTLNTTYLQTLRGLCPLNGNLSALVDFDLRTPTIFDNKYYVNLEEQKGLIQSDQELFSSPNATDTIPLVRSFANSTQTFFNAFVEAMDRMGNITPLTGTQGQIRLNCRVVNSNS

[1] = 0.01 mg/ml, 10µl test compound, control value in brackets not reported
[2] = 0.1 mg/ml, 10µl test compound, control value in brackets not reported
[3] = 1 mg/ml, 10µl test compound, control value in brackets not reported

Row | Compound | (a) Decrease in background (without HRP with test cpd.) (0.01 mg/ml, 10µl test compound) | (b) Increase in signal (with HRP, with test cpd.) (0.01 mg/ml, 10µl test compound) | (c) Increase in signal: background ratio (0.01 mg/ml, 10µl test compound) | (d) Signal: Background: ratio (control = with no enhancer) [1] | (a) Decrease in background (without HRP with test cpd.) (0.1 mg/ml, 10µl test compound) | (b) Increase in signal (with HRP, with test cpd.) (0.1 mg/ml, 10µl test compound) | (c) Increase in signal: background ratio (0.1 mg/ml, 10µl test compound) | (d) Signal: Background: ratio (control = with no enhancer) [2] | (a) Decrease in background (without HRP with test cpd.) (1 mg/ml, 10µl test compound) | (b) Increase in signal (with HRP, with test cpd.) (1 mg/ml, 10µl test compound) | (c) Increase in signal: background ratio (1 mg/ml, 10µl test compound) | (d) Signal: Background: ratio (control = with no enhancer) [3] | (a) Decrease in background (without HRP with test cpd.) | (b) Increase in signal (with HRP, with test cpd.) | (c) Increase in signal: background ratio | (d) Signal: Background: ratio (control = with no enhancer)
1 | OB(O)c1cccc(Cl)c1Cl [Compound 1022, 2,3-dichlorophenylboronic acid] | Y | N | N (N = no) | 2.2 (2.0) | Y | N | Y (Column (c) shows whether there was an increase in the signal:background ratio by over 25% of the control value (Y = yes) | 3.6 (2.7) | Y | N | N (N = no) |  |  |  |  | 
2 | Clc1ccc(OB(Oc2ccc(Cl)cc2)c2ccc(Cl)cc2)cc1 [Compound 1041, 4-chlorophenyl-di-(4'-chlorophenoxy)borane] | Y | Y | Y (Column (c) shows whether there was an increase in the signal:background ratio by over 25% of the control value (Y = yes) | 6.3 (1.9) | Y | Y | Y (Column (c) shows whether there was an increase in the signal:background ratio by over 25% of the control value (Y = yes) | 360.2 (2.8) | Y | Y | Y (Column (c) shows whether there was an increase in the signal:background ratio by over 25% of the control value (Y = yes) | 2606.2(4.5) |  |  |  | 
3 | diphenylboronic anhydride [Compound 1048] | Y | Y | Y (Column (c) shows whether there was an increase in the signal:background ratio by over 25% of the control value (Y = yes) | 3.1 (1.8) | Y | Y | Y (Column (c) shows whether there was an increase in the signal:background ratio by over 25% of the control value (Y = yes) | 139.0 (2.7) | Y | N | Y (Column (c) shows whether there was an increase in the signal:background ratio by over 25% of the control value (Y = yes) | 100.0 (4.5) |  |  |  | 
4 | OB(O)c1cccc2c1oc1ccccc12 [Compound 1008, 4-dibenzofuranboronic acid] | Y | N | N (N = no) | 1.6 | Y | N | N (N = no) | 1.5 | Y | N | N (N = no) | 1.3 (2.5) |  |  |  | 
5 | Clc1cc(Cl)c(OB(Oc2cc(Cl)c(Cl)cc2Cl)c2cc(Cl)c(Cl)cc2Cl)cc1Cl [Compound 1039, di-(3',4',6'-trichlorophenoxy)-3,4,6-trichlorophenylborane] |  |  |  |  |  |  |  |  |  |  |  |  | Y | N | N (key: column (a) shows whether the test compound lowered the light output from the luminol-hydrogen peroxide solution (Y = yes; N = no) | 3.4 (2.9)
6 | O=[N+]([O-])c1cc(B(O)O)ccc1Cl [Compound 1021, 4-chloro-3-nitrophenylboronic acid] | Y | Y | Y (Column (c) shows whether there was an increase in the signal:background ratio by over 25% of the control value (Y = yes) | 2.3 (1.8) | Y | Y | Y (Column (c) shows whether there was an increase in the signal:background ratio by over 25% of the control value (Y = yes) | 44.5 (2.8) | Y | Y | Y (Column (c) shows whether there was an increase in the signal:background ratio by over 25% of the control value (Y = yes) | 247.9 (4.5) |  |  |  | 
7 | 2-benzimidazolylphenylboronic acid [Compound 1046] | Y | N | N (N = no) |  | Y | N | N (N = no) |  | Y | N | N (N = no) |  |  |  |  | 
8 | Clc1cc(Cl)cc(OB(Oc2cc(Cl)cc(Cl)c2)c2cc(Cl)cc(Cl)c2)c1 [Compound 1040, di-(3',5'-dichlorophenoxy)-3,5-dichlorophenylborane] |  |  |  |  |  |  |  |  |  |  |  |  | Y | N |  | 4.7 (4.5) and 3.9 (2.9)
9 | OB(O)c1cc(N=Nc2cccc(C(F)(F)F)c2)ccc1O [Compound 1005] | N | Y | Y (Column (c) shows whether there was an increase in the signal:background ratio by over 25% of the control value (Y = yes) | 2.7 | N | Y | Y (Column (c) shows whether there was an increase in the signal:background ratio by over 25% of the control value (Y = yes) | 2.9 | Y | N | N (N = no) | 2.4 (2.1) |  |  |  | 
10 | O=C(O)c1ccc(N=Nc2ccc(O)c(B(O)O)c2)cc1 [Compound 1018, 4-(3'-borono-4'-hydroxyphenylazo)benzoic acid] | Y | N | Y (Column (c) shows whether there was an increase in the signal:background ratio by over 25% of the control value (Y = yes) | 5.0 | Y | N | Y (Column (c) shows whether there was an increase in the signal:background ratio by over 25% of the control value (Y = yes) | 24.5 | Y | N | Y (Column (c) shows whether there was an increase in the signal:background ratio by over 25% of the control value (Y = yes) | 4.2 (1.9) |  |  |  | 
11 | OB(O)c1cccc(Cl)c1 [Compound 1028, 3-chlorophenylboronic acid] |  |  |  |  |  |  |  |  |  |  |  |  | Y | N and Y |  | 
12 | Cc1ccc(B(O)O)cc1 [Compound 1034, 4-methylphenylboronic acid] | Y | N | Y (Column (c) shows whether there was an increase in the signal:background ratio by over 25% of the control value (Y = yes) | 3.6 (1.9) | Y | Y | Y (Column (c) shows whether there was an increase in the signal:background ratio by over 25% of the control value (Y = yes) | 41.2 (2.9) | Y | N | N (N = no) |  |  |  |  | 
13 | Nc1c(Cl)cc(Cl)c(B(O)O)c1Cl [Compound 1026, 3-amino-2,4,6-trichlorophenylboronic acid] | Y | N | N (N = no) | 2.1 (2.0) | Y | Y | Y (Column (c) shows whether there was an increase in the signal:background ratio by over 25% of the control value (Y = yes) | 72.4 (2.8) | Y | N | Y (Column (c) shows whether there was an increase in the signal:background ratio by over 25% of the control value (Y = yes) | 40.5 (4.5) |  |  |  | 

From patent publication EP0626016B1, “[…] […]” (BRITISH TECHNOLOGY GROUP LIMITED, priority 1992, dated 1993)
